Earlier results, collected in US11938184B2, “Compositions and methods for treating Crohn's Disease and related conditions and infections” (priority 2012, dated 2024).

Test system: Crohn's disease fistulae

Substance: infliximab
- response in fistulae (ACCENT 2 trial, after 14 weeks): 60%
- fistulae maintaining closure (ACCENT 2 trial, at 1 year): 36%
- healing of perianal fistulae (infliximab alone): 46-78%
- healing of recto-vaginal fistulae (infliximab alone): 14-30%
- fistulae initially healed (initial phase II and subsequent phase III trials, 296 patients): 56-68%
- median duration of fistula closure (normally requiring 3 doses of infliximab): approximately 3 months
